Assay results published in ChEMBL document CHEMBL4229544, “Design, synthesis and antibacterial properties of pyrimido[4,5-b]indol-8-amine inhibitors of DNA gyrase” (Bioorg Med Chem Lett, 2018).
Values after ≈ are worked out from the molar mass of the structure shown.

Experiments:
Escherichia coli = test: Antibacterial activity against Escherichia coli ATCC 25922; format: functional
[1] = tested on: Mycobacterium tuberculosis; test: Antibacterial activity against Mycobacterium tuberculosis H37Rv; format: functional
Staphylococcus aureus = test: Antibacterial activity against Staphylococcus aureus ATCC 29213; format: functional
Enterococcus faecalis [2] = test: Antibacterial activity against Enterococcus faecalis ATCC 29212; format: functional
[3] = tested on: Mycolicibacterium smegmatis; test: Antibacterial activity against Mycobacterium smegmatis ATCC 19420; format: functional
[4] = tested on: Staphylococcus epidermidis; test: Antibacterial activity against Staphylococcus epidermidis ATCC 12228; format: functional
HepG2 = test: Cytotoxicity against human HepG2 cells after 24 hrs by CellTiter-Glo assay; format: cell-based; conditions: HepG2, 24 h
Pseudomonas aeruginosa [5] = test: Antibacterial activity against Pseudomonas aeruginosa ATCC 27853; format: functional
Haemophilus influenzae [6] = test: Antibacterial activity against Haemophilus influenzae ATCC 49247; format: functional
Acinetobacter baumannii = test: Antibacterial activity against Acinetobacter baumannii NCTC 13420; format: functional
Streptococcus pneumoniae [7] = test: Antibacterial activity against Streptococcus pneumoniae ATCC 49619; format: functional
[8] = biological target: T1, DNA gyrase subunit A/DNA gyrase subunit B (Mycobacterium tuberculosis (strain ATCC 25618 / H37Rv), UniProt P9WG45+P9WG47); test: Inhibition of Mycobacterium tuberculosis DNA gyrase ATPase activity; format: protein-complex assay
Homo sapiens = organism: Homo sapiens; test: Inhibition of human topoisomerase-2-mediated decatenation at 100 uM relative to control
[9] = biological target: T1, DNA gyrase subunit A/DNA gyrase subunit B; test: Inhibition of Mycobacterium tuberculosis DNA gyrase activity; format: protein-complex assay
Pseudomonas aeruginosa [10] = test: Antibacterial activity against Pseudomonas aeruginosa ATCC 27853 by agar dilution method; format: functional
[11] = tested on: Staphylococcus epidermidis; test: Antibacterial activity against Staphylococcus epidermidis ATCC 12228 by agar dilution method; format: functional
Streptococcus pneumoniae [12] = test: Antibacterial activity against Streptococcus pneumoniae ATCC 49619 by agar dilution method; format: functional
[13] = tested on: Mycobacterium tuberculosis; test: Antibacterial activity against Mycobacterium tuberculosis H37Rv measured after 5 days by resazurin-dye based microplate assay; format: functional; conditions: 120 h
Enterococcus faecalis [14] = test: Antibacterial activity against Enterococcus faecalis ATCC 29212 by agar dilution method; format: functional
Haemophilus influenzae [15] = test: Antibacterial activity against Haemophilus influenzae ATCC 49247 by agar dilution method; format: functional

T1 sequence (P9WG45 whole entry): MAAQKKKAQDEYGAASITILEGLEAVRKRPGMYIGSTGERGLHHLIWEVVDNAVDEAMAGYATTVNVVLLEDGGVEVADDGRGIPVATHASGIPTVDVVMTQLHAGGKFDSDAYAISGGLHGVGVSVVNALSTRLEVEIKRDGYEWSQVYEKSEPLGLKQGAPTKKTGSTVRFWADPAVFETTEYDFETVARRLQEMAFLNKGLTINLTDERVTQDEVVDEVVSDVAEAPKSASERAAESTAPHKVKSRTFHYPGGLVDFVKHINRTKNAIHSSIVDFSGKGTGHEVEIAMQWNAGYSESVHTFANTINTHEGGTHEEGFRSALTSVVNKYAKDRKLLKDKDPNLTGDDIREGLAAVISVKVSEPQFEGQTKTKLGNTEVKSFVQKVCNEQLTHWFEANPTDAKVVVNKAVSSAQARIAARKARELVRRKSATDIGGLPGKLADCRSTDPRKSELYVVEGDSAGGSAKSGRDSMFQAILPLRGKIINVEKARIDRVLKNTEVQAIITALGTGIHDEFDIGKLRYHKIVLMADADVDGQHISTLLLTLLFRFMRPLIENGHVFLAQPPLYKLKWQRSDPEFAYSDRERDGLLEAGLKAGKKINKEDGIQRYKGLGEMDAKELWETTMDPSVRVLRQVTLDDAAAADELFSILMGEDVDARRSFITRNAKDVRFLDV
T1 sequence (P9WG47 whole entry): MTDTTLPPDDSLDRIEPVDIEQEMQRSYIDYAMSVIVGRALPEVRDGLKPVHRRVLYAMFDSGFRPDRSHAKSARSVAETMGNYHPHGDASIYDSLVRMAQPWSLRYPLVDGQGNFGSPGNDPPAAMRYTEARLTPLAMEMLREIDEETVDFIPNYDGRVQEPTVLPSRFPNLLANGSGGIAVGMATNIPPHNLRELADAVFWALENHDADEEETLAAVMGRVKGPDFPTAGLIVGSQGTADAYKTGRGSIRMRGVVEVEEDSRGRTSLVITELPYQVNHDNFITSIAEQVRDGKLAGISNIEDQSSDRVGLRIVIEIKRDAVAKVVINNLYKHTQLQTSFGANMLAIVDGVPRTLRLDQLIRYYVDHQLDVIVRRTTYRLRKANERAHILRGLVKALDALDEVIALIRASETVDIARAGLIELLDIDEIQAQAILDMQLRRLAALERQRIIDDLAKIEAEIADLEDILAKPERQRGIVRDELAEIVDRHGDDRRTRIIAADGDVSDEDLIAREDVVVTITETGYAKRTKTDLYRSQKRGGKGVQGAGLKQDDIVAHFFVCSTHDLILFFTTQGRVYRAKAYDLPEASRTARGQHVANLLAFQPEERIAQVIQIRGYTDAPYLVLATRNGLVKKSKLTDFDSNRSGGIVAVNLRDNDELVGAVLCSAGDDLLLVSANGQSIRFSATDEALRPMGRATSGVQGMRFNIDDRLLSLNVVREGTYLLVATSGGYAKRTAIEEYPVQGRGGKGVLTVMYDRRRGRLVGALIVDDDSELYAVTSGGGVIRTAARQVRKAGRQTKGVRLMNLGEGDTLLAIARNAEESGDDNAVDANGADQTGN

Structure (SMILES) | MIC (Escherichia coli) [µg/mL] | MIC [1] [µg/mL] | MIC (Staphylococcus aureus) [µg/mL] | MIC (Enterococcus faecalis [2]) [µg/mL] | MIC [3] [µg/mL] | other results
CNc1cc(F)cc2c1[nH]c1nc(CNC(=O)c3ocnc3C)nc(N3CCC(N(C)C)C3)c12 (centres undefined) | 2 (≈ 4.29 µM) | 0.06 (≈ 0.129 µM) | 1 (≈ 2.14 µM) | 0.03 (≈ 0.0643 µM) | 0.06 (≈ 0.129 µM) | –
CNc1cc(F)cc2c1[nH]c1nc(CNC(=O)c3ocnc3C)nc(N3CCC(NC)C3)c12 (centres undefined) | 4 (≈ 8.84 µM) | 0.03 (≈ 0.0663 µM) | 4 (≈ 8.84 µM) | 0.25 (≈ 0.552 µM) | 0.06 (≈ 0.133 µM) | –
CNc1cc(F)cc2c1[nH]c1nc(CNC(=O)c3cccc(C(=O)OC)n3)nc(N3CCC(CN)C3)c12 (centres undefined) | 32 (≈ 63.2 µM) | – | 8 (≈ 15.8 µM) | 1 (≈ 1.97 µM) | 0.06 (≈ 0.118 µM) | –
CNc1cc(F)cc2c1[nH]c1nc(CNC(=O)c3cnco3)nc(N3CCC(NC)C3)c12 (centres undefined) | 4 (≈ 9.12 µM) | 0.03 (≈ 0.0684 µM) | 8 (≈ 18.2 µM) | 0.5 (≈ 1.14 µM) | 0.5 (≈ 1.14 µM) | MIC [4]: 2 µg/mL (≈ 4.56 µM); IC50 (HepG2): > 32 µg/mL; MIC (Pseudomonas aeruginosa [5]): > 64 µg/mL; MIC (Haemophilus influenzae [6]): 4 µg/mL (≈ 9.12 µM); MIC (Acinetobacter baumannii): > 64 µg/mL; MIC (Streptococcus pneumoniae [7]): 2 µg/mL (≈ 4.56 µM)
CNc1cc(F)cc2c1[nH]c1nc(CNC(=O)c3cocn3)nc(N3CCC(N)C3)c12 (centres undefined) | 128 (≈ 302 µM) | – | 8 (≈ 18.8 µM) | 0.06 (≈ 0.141 µM) | 0.12 (≈ 0.283 µM) | IC50 [8]: 25 nM; MIC [4]: 1 µg/mL (≈ 2.36 µM); IC50 (HepG2): 10.8 µg/mL (≈ 25.5 µM); inhibition (Homo sapiens): 5.8%; MIC (Pseudomonas aeruginosa [5]): 128 µg/mL (≈ 302 µM); MIC (Haemophilus influenzae [6]): 1 µg/mL (≈ 2.36 µM); IC50 [9]: 5 nM; MIC (Acinetobacter baumannii): 16 µg/mL (≈ 37.7 µM); MIC (Streptococcus pneumoniae [7]): 0.12 µg/mL (≈ 0.283 µM)
CNc1cc(F)cc2c1[nH]c1nc(CN)nc(N3CCC(N)C3)c12 (centres undefined) | 8 (≈ 24.3 µM) | – | 8 (≈ 24.3 µM) | 8 (≈ 24.3 µM) | – | –
CO[C@H]1/C=C/O[C@@]2(C)Oc3c(C)c(O)c4c(O)c(c(/C=N/N5CCN(C)CC5)c(O)c4c3C2=O)NC(=O)/C(C)=C\C=C\[C@H](C)[C@H](O)[C@@H](C)[C@@H](O)[C@@H](C)[C@H](OC(C)=O)[C@@H]1C [RIFAMPIN] | – | – | – | – | 16 (≈ 19.4 µM) | –
COc1c(N2C[C@@H]3CCCN[C@@H]3C2)c(F)cc2c(=O)c(C(=O)O)cn(C3CC3)c12 [MOXIFLOXACIN] | – | – | – | – | 0.03 (≈ 0.0747 µM) | –
CNc1cc(F)cc2c1[nH]c1nc(CNC(=O)c3ocnc3C)nc(N3CCC(CN)C3)c12 (centres undefined) | 8 (≈ 17.7 µM) | 0.015 (≈ 0.0331 µM) | 8 (≈ 17.7 µM) | 0.5 (≈ 1.1 µM) | 0.03 (≈ 0.0663 µM) | –
CNc1cc(F)cc2c1[nH]c1nc(CNC(=O)c3ccc4cc[nH]c4n3)nc(N3CCC(N(C)C)C3)c12 (centres undefined) | 4 (≈ 7.97 µM) | 0.25 (≈ 0.498 µM) | 1 (≈ 1.99 µM) | 0.5 (≈ 0.997 µM) | 0.25 (≈ 0.498 µM) | –
CNc1cc(F)cc2c1[nH]c1nc(CNC(=O)c3ccco3)nc(N3CCC(N(C)C)C3)c12 (centres undefined) | 0.5 (≈ 1.11 µM) | 0.03 (≈ 0.0664 µM) | 0.25 (≈ 0.554 µM) | 0.12 (≈ 0.266 µM) | 0.06 (≈ 0.133 µM) | –
CNc1cc(F)cc2c1[nH]c1nc(CNC(=O)c3cccnc3)nc(N3CCC(N)C3)c12 (centres undefined) | 8 (≈ 18.4 µM) | – | 32 (≈ 73.7 µM) | 0.25 (≈ 0.575 µM) | – | –
CNc1cc(F)cc2c1[nH]c1nc(CNC(=O)c3cnc(C)o3)nc(N3CCC(CN)C3)c12 (centres undefined) | 4 (≈ 8.84 µM) | 0.015 (≈ 0.0331 µM) | 8 (≈ 17.7 µM) | 0.25 (≈ 0.552 µM) | 0.12 (≈ 0.265 µM) | –
NNC(=O)c1ccncc1 [ISONIAZID] | – | – | – | – | 4 (≈ 29.2 µM) | –
CNc1cc(F)cc2c1[nH]c1nc(CNC(=O)c3cnco3)nc(N3CCC(N(C)C)C3)c12 (centres undefined) | 0.25 (≈ 0.552 µM) | 0.06 (≈ 0.133 µM) | 0.5 (≈ 1.1 µM) | 0.015 (≈ 0.0331 µM) | 0.06 (≈ 0.133 µM) | MIC [4]: 0.12 µg/mL (≈ 0.265 µM); IC50 (HepG2): > 16 µg/mL; MIC (Pseudomonas aeruginosa [5]): > 64 µg/mL; MIC (Haemophilus influenzae [6]): 4 µg/mL (≈ 8.84 µM); MIC (Acinetobacter baumannii): 1 µg/mL (≈ 2.21 µM); MIC (Streptococcus pneumoniae [7]): 0.12 µg/mL (≈ 0.265 µM)
CNc1cc(F)cc2c1[nH]c1nc(CNC(=O)c3cccnn3)nc(N3CCC(N)C3)c12 (centres undefined) | 4 (≈ 9.19 µM) | – | 8 (≈ 18.4 µM) | 0.12 (≈ 0.276 µM) | – | –
CNc1cc(F)cc2c1[nH]c1nc(CNC(=O)c3cnco3)nc(N3CCC(CN)C3)c12 (centres undefined) | 4 (≈ 9.12 µM) | 0.03 (≈ 0.0684 µM) | 4 (≈ 9.12 µM) | 0.12 (≈ 0.274 µM) | 0.06 (≈ 0.137 µM) | –
CNc1cc(F)cc2c1[nH]c1nc(CNC(=O)c3cnc(C)o3)nc(N3CCC(N(C)C)C3)c12 (centres undefined) | 1 (≈ 2.14 µM) | – | 1 (≈ 2.14 µM) | 0.015 (≈ 0.0322 µM) | 0.002 (≈ 0.00429 µM) | –
CO[C@@H]1[C@@H](OC(N)=O)[C@@H](O)[C@H](Oc2ccc3c(O)c(NC(=O)c4ccc(O)c(CC=C(C)C)c4)c(=O)oc3c2C)OC1(C)C [NOVOBIOCIN] | > 64 | – | 0.06 (≈ 0.0979 µM) | – | 1 (≈ 1.63 µM) | MIC (Pseudomonas aeruginosa [10]): > 64 µg/mL; IC50 (HepG2): > 32 µg/mL; MIC [11]: 0.06 µg/mL (≈ 0.0979 µM); MIC (Streptococcus pneumoniae [12]): 0.5 µg/mL (≈ 0.816 µM); MIC [13]: 4 µg/mL (≈ 6.53 µM); MIC (Enterococcus faecalis [14]): 4 µg/mL (≈ 6.53 µM); MIC (Haemophilus influenzae [15]): 0.5 µg/mL (≈ 0.816 µM)
CNc1cc(F)cc2c1[nH]c1nc(CNC(=O)c3cnco3)nc(N3CCC(N)C3)c12 (centres undefined) | 4 (≈ 9.42 µM) | 0.25 (≈ 0.589 µM) | 8 (≈ 18.8 µM) | 1 (≈ 2.36 µM) | 0.25 (≈ 0.589 µM) | IC50 [8]: 59 nM; MIC [4]: 1 µg/mL (≈ 2.36 µM); IC50 (HepG2): > 16 µg/mL; inhibition (Homo sapiens): 21.2%; MIC (Pseudomonas aeruginosa [5]): 32 µg/mL (≈ 75.4 µM); MIC (Haemophilus influenzae [6]): 1 µg/mL (≈ 2.36 µM); IC50 [9]: 10 nM; MIC (Acinetobacter baumannii): 8 µg/mL (≈ 18.8 µM); MIC (Streptococcus pneumoniae [7]): 1 µg/mL (≈ 2.36 µM)
CNc1cc(F)cc2c1[nH]c1nc(CNC(=O)c3cocn3)nc(N3CCC(NC)C3)c12 (centres undefined) | 16 (≈ 36.5 µM) | 0.12 (≈ 0.274 µM) | 16 (≈ 36.5 µM) | 0.25 (≈ 0.57 µM) | 0.5 (≈ 1.14 µM) | –
